Entries after “also recorded” stand apart in the source; their conditions may differ.
Tests used:
[1] = molecular target: FKBP12F36V (Homo sapiens, UniProt P62942, F37V); conditions: cited from earlier work
[2] = system: endogenous FKBPs; conditions: cited from earlier work
[3] = system: PGCs containing the targeted nitroreductase gene; test: PGC culture with nitroreductase pro-drug CB1954, total cell number after 10 days; format: cell-based, chicken
Description: FIG. 5 500 PGCs (Control, CAG-NTR or Dazl-NTR) were cultured in the presence or absence of the nitroreductase pro-drug CB1954 (n=2 for each concentration of pro-drug). After 10 days the total cell number was counted for each well. N=6 for each data point, from three independent experiments.
PGCs containing the targeted nitroreductase gene were treated with the pro-drug CB1954. PGCs died when exposed to the drug.

[4] = system: DAZL-iCasp9 targeted PGCs; test: Ablation of injected DAZL-iCasp9 targeted PGCs in embryos treated with B/B; format: in vivo, chicken; conditions: stage HH 16 embryos, 25 nM B/B, gonads viewed at 8 days; FIG. 7
Description: Stage HH 16 embryos were injected with 3500 PGCs transfected with CRISPR reagents to insert an inducible caspase gene and GFP at the dazl locus, and 3500 PGCs transfected with a transposon to insert a cassette for TdTomato expression randomly in the genome. After injection, embryos were dosed with 50 μl of 1× Pen/Strep with or without 25 nM of the dimeriser drug B/B. At 8 days of development, gonads were dissected and viewed under fluorescence. Images are representative of three independent injections for each treatment.
PGCs containing the targeted icaspase9 gene were treated with the B/B dimerization compound. […] These cells were mixed with control red fluorescent PGCs and injected into chicken embryos. The chicken embryos were treated with the B/B dimerization compound.

[5] = system: germ cells; test: Germ cell ablation in G2 Dazl-iCaspase9 and Dazl-aviCaspase9 embryos after B/B injection; format: in vivo, chicken; conditions: FIG. 11
Description: B/B was injected into the dorsal aorta of stage 16 chicken embryos (day 2.5). Embryos were incubated and examined at day 10 for GFP fluorescence and DDX4 expression. Left panels; GFP fluorescence in B/B injected iCaspase9 and aviCaspase9 embryos. Right panels: immunofluorescence for DDX4 protein (red).
The G1 Dazl-icaspase9 and Dazl-aviCaspase9 chickens were raised to sexual maturity and mated with wildtype chickens. Fertile eggs from the matings (G2 embryos) were incubated and examined for GFP expression in the gonads. The germ cells in the gonads of both Dazl-icaspase9 and Dazl-avicaspase9 G2 embryos contained GFP+ cells in the gonad (FIG. 9). […] The G2 embryos were tested for germ cell ablation. 1.0 μl of 0.1 mM B/B dimerization reagent (Takara Bio, Inc) was injected into the bloodstream of day 2.5 (stage 16 Hamilton & Hamburger (HH)) chicken embryos. The embryos were incubated for 8 days, PCR-screened to identify iCaspase9 embryos and examined for GFP expression in the gonads. […] Embryos were incubated for 8 days and examined for florescence and germ cells. […] (FIG. 12).

[6] = system: PGCs containing the targeted icaspase9 gene; test: PGC culture with dimerization molecule B/B, total cell number after 10 days; format: cell-based, chicken
Description: FIG. 6 500 PGCs (dazl-GFP, dazl-human-Caspase or dazl-chicken-Caspase) were cultured in the presence or absence of the dimerization molecule B/B. After 10 days the total cell number was counted for each well. N=6 for each data point, from three independent experiments.
FIG. 22 500 PGCs (dazl-GFP, dazl-iCaspase, dazl-aviCaspase, ddx4-iCaspase9) were cultured in the presence or absence of the dimerization molecule B/B. After 10 days the total cell number was counted for each well. N=2 for each data point.
PGCs containing the targeted icaspase9 gene were treated with the B/B dimerization compound. […] These cells were mixed with control red fluorescent PGCs and injected into chicken embryos. The chicken embryos were treated with the B/B dimerization compound. Only red PGCs and control GFP PGCs were visible in the embryos. Dazl icaspase9 PGCs were killed (FIG. 7).
The iCaspase9 trasgene was targeted to either the DDX4 or the DAZL locus in PGCs and the cells were then exposed to the dimerisation drug. Cells containing the transgene inserted at the DAZL locus were determined to be inhibited/killed. Without wishing to be bound by theory, the inventors consider the expression levels at embryonic stages are important for ablating germ cells.

[7] = system: endogenous (host) germ cells; test: Host germ cell ablation and donor PGC colonisation in Dazl-aviCaspase9 G2 embryos with B/B; format: in vivo, chicken; conditions: Dazl-aviCaspase9 G2 embryos injected with donor TdTomato PGCs and B/B, examined at day 10; FIG. 12
Description: FIG. 12 B/B drug treatment of aviCaspase9 transgenic embryos ablates host germ cells and permits transplanted donor cells to populate the host gonad. Stage HH 16 embryos containing the aviCaspase9 transgene targeted to the DAZL locus, were injected with 200 donor PGCs transfected with a transposon to insert a cassette for TdTomato expression randomly in the genome. Injected cells were in 1 μl of solution containing 0.5 mM (final concentration) B/B dimerization drug. After injection, eggs were dosed with 50 μl of 1× Pen/Strep containing 15 μM (final concentration) B/B dimeriser drug and incubated for 8 days. At 10 days of development, gonads were dissected and viewed under fluorescence.
The G1 Dazl-icaspase9 and Dazl-aviCaspase9 chickens were raised to sexual maturity and mated with wildtype chickens. Fertile eggs from the matings (G2 embryos) were incubated and examined for GFP expression in the gonads. The germ cells in the gonads of both Dazl-icaspase9 and Dazl-avicaspase9 G2 embryos contained GFP+ cells in the gonad (FIG. 9). […] The G2 embryos were tested for germ cell ablation. 1.0 μl of 0.1 mM B/B dimerization reagent (Takara Bio, Inc) was injected into the bloodstream of day 2.5 (stage 16 Hamilton & Hamburger (HH)) chicken embryos. The embryos were incubated for 8 days, PCR-screened to identify iCaspase9 embryos and examined for GFP expression in the gonads. […]

[8] = system: host germ cells; test: Offspring from Dazl-Caspase9 hosts injected with Silkie donor PGCs and B/B; format: in vivo, chicken; conditions: Dazl-Caspase9 hosts injected with black skinned Silkie PGCs; FIG. 23
Description: FIG. 23 illustrates the use of caspase9 host ablation using black skinned silkie chicken donor PGCs injected into the iCaspase9 surrogate host embyros which are hatched and bred to produce pure offspring. […] (A-C) The offspring (embryos and chicks) have black skins indicating they came from the donor germ cells.
Utilising caspase 9 expression targeted to the DAZL locus in PGCs, host germ cell ablation and producing offspring from a donor chicken breed were tested using chicken donor PGCs from a black skinned silkie chicken breed. Donor PGCs injected into the caspase host embryos which were then raised to sexual maturity and bred were tested.
In more detail, in this embodiment, black skinned Silkie PGCs were mixed with B/B dimerisation drug and injected into Dazl-Caspase host embryos whilst in the egg. The eggs were sealed and the embryos were hatched then crossed to each other when sexual mature.
50% of offspring should be GFP positive if derived from the endogenous GFP+ caspase9 host PGCs.

Chain of FKBP12F36V (P62942 whole entry F37V): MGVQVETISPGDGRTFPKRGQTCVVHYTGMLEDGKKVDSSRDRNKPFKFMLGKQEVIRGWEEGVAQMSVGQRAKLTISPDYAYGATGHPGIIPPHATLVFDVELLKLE

SMILES: CC[C@H](C(=O)N1CCCC[C@H]1C(=O)O[C@H](CCc1ccc(OC)c(OC)c1)c1cccc(OCC(=O)NCCNC(=O)COc2cccc([C@@H](CCc3ccc(OC)c(OC)c3)OC(=O)[C@@H]3CCCCN3C(=O)[C@@H](CC)c3cc(OC)c(OC)c(OC)c3)c2)c1)c1cc(OC)c(OC)c(OC)c1 [AP1903]
- affinity and selectivity for FKBP12F36V [1]: high affinity and selectivity
- interaction with endogenous FKBPs [2]: minimal interaction

SMILES: NC(=O)c1cc(N2CC2)c([N+](=O)[O-])cc1[N+](=O)[O-] [CB1954]
- cell number versus control cells ([3]; NTR targeted to the dazl locus, FIG. 5): reduction in cell number in comparison to the control cells
- PGC survival on exposure to pro-drug ([3]; PGCs containing the targeted nitroreductase gene): died

SMILES: CC[C@H](C(=O)N1CCCC[C@H]1C(=O)O[C@H](CCc1ccc(OC)c(OC)c1)c1cccc(OCC(=O)NCC(CNC(=O)COc2cccc([C@@H](CCc3ccc(OC)c(OC)c3)OC(=O)[C@@H]3CCCCN3C(=O)[C@@H](CC)c3cc(OC)c(OC)c(OC)c3)c2)CN(C)C)c1)c1cc(OC)c(OC)c(OC)c1 [B/B, AP20187]
- affinity and selectivity for FKBP12F36V [1]: high affinity and selectivity
- fate of injected Dazl icaspase9 PGCs in embryos [4]: killed; also recorded: ablates
- interaction with endogenous FKBPs [2]: minimal interaction
- GFP expression in the gonads ([5]; 1.0 μl of 0.1 mM injected at day 2.5, incubated 8 days): no visible GFP expression
- DDX4 positive or GFP+ germ cells in the gonads ([5]; cryosections and DDX4 immuno-staining): almost no identifiable DDX4 positive or GFP+ cells are present; also recorded: no germ cells
- PGC number ([6]; control untargeted PGCs): did not have reduced numbers of PGCs
- PGC number ([6]; human and chicken caspase9 genes targeted to the dazl locus, FIG. 6): severely reduced PGC numbers
- PGC number ([6]; iCaspase 9 targeted to the ddx4 locus): slightly less PGC number
- effect on cells with iCaspase9 transgene ([6]; transgene inserted at the DAZL locus, FIG. 22): inhibited/killed
- endogenous (host) germ cells in the gonad [7]: no endogenous (host) germ cells were detected
- skin phenotype of offspring (donor origin) [8]: black skin
